“Also recorded” adds a separate entry of the source. Like-named read-outs stand apart in the source and are kept apart here. Values belong to the molecule of their own block, whether it stands above or below them.
Key:
[1] = target: recombinant human CYP3A4 (rCYP3A4) (Homo sapiens, UniProt P08684); experiment: Inhibition of tofacitinib metabolism (M8 formation) by rCYP3A4
Description: (§1) All except NADPH were mixed on ice.
(§2) Statistical analysis was conducted using Student's t-test.

[2] = test system: HLMs (human liver microsomes); experiment: Inhibition of tofacitinib metabolism (M8 formation) in HLMs; type: in vitro ADME; conditions: for Inhibition type / Ki: substrate tofacitinib; for IC50: substrate tofacitinib at about Km, 30 min, 37°C
Description: as §1, §2

[3] = test system: RLMs (rat liver microsomes); experiment: Inhibition of tofacitinib metabolism (M8 formation) in RLMs by furanocoumarins; type: in vitro ADME; conditions: for inhibitory effectiveness on RLMs (screening, M8 content): 100 μM furanocoumarin, 0.3 mg/mL RLMs; for IC50: substrate tofacitinib at about Km, 30 min, 37°C
Description: as §1, §2

[4] = test system: HLMs (human liver microsomes); experiment: Michaelis-Menten kinetics of tofacitinib metabolism (M8 formation) in HLMs; type: in vitro ADME; conditions: tofacitinib metabolism to M8, no inhibitor, n = 3
Description: as §1, §2

[5] = test system: RLMs (rat liver microsomes); experiment: Michaelis-Menten kinetics of tofacitinib metabolism (M8 formation) in RLMs; type: in vitro ADME; conditions: tofacitinib metabolism to M8, no inhibitor, n = 3
Description: as §1, §2

in vivo = experiment: in vivo; parameters: species or system Sprague Dawley rats; conditions: male, Sprague-Dawley, rat, po, 10 mg/kg
Description: Male Sprague Dawley (SD) rats (average weighing 220–250) g were purchased from the laboratory animal center of Wenzhou Medical University, Zhejiang Province, China. Animals were maintained in a controlled environment with a 12 h light-dark cycle at 20°C–25°C and 55% ± 15% relative humidity. Diet intake was not allowed for a period of 12 h prior to the experiment. Then, water was allowed to be free and food was provided after the experiment. All the experimental procedures and protocols were reviewed and approved by the animal ethics committee of Wenzhou Medical University according to the guide for the care and use of laboratory animals (xmsq2021-0409). 36 male rats aged 8–10 weeks were randomly selected and divided into six groups for gavage. […] Blood (300 μL) was collected from the tail veins into 1.5 mL tubes at 5, 15, and 30 min and 1, 2, 3, 4, 6, 8, 12, and 24 h after administering the drugs. The supernatant was collected and stored at −20°C after centrifugation at 4000 rpm for 10 min. The samples were restored to RT before analysis. 50 μL sample was accurately drawn to 1.5 mL of EP tube, 150 μL of midazolam internal standard solution (200 ng/mL) was added to the tube, then placed and vortexed for 15 s. After centrifugation at 13, 000 rpm for 15 min, 150 µL of supernatant was prepared for the UPLC-MS/MS system to analyze.
as §2

recombinant human CYP3A4 (rCYP3A4), sequence (P08684 whole entry): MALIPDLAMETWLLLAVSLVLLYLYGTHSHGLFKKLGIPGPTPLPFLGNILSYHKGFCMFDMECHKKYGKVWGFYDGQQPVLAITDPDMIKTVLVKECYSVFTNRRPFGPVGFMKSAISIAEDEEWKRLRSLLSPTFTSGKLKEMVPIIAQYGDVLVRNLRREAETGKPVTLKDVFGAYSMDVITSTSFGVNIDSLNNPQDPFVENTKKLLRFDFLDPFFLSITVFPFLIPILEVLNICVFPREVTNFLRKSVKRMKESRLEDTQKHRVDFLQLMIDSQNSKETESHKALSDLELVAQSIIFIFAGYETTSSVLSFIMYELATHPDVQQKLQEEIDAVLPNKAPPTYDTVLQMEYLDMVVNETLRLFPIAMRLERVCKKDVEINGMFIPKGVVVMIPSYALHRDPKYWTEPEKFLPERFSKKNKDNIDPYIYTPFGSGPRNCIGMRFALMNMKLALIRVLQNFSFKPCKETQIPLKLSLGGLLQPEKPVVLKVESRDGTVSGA

SMILES: COc1c2ccoc2cc2oc(=O)ccc12 [Bergapten, 5-methoxy-psoralen]
IC50 [1]: 1.42 µM
Ki [1]: 1.22 µM
Inhibition type ([1]; rCYP3A4, substrate tofacitinib): Competitive inhibition
Inhibition type ([1]; rCYP3A4, substrate tofacitinib, listed as bergapten): competitively inhibited
Inhibition type [2]: Competitive inhibition
Ki [2]: 189 nM
IC50 [2]: 2.65 µM
Inhibition type ([2]; listed as bergapten): competitively inhibited
inhibitory effectiveness on RLMs (screening, M8 content) [3]: potent inhibitory activity
Inhibition type ([3]; RLMs, substrate tofacitinib): Competitive inhibition
Ki ([3]; RLMs, substrate tofacitinib): 443 nM
IC50 ([3]; RLMs): 2.62 µM
Inhibition type ([3]; RLMs, substrate tofacitinib, listed as bergapten): competitively inhibited

SMILES: O=c1ccc2ccc3occc3c2o1 [Isopsoralen]
risk of DDI with tofacitinib (from Ki) [1]: medium
IC50 ([1]; IC50, rCYP3A4, substrate tofacitinib at about Km, 30 min, 37°C): 17.1 µM
Ki ([1]; Ki, rCYP3A4, substrate tofacitinib): 15.4 µM
Inhibition type ([1]; rCYP3A4, substrate tofacitinib): competitive suppression; also recorded: Competitive inhibition
Inhibition type [2]: competitive suppression; also recorded: Competitive inhibition
Ki [2]: 1770 nM
IC50 [2]: 12.3 µM
inhibitory effectiveness on RLMs (screening, M8 content) [3]: potent inhibitory activity
Inhibition type ([3]; RLMs, substrate tofacitinib): competitive suppression; also recorded: Competitive inhibition
IC50 ([3]; RLMs): 19.3 µM

Km [4]: 65.8 ± 4.75 µM
Km ([2]; bergapten 0 μM): 47.8 µM
Km ([2]; bergapten 0.5 μM): 53.1 µM
Km ([2]; bergapten 1 μM): 76.7 µM
Km ([2]; bergapten 2 μM): 190 µM
Km ([2]; bergapten 4 μM): ~5860 µM
Km ([2]; isopsoralen 0 μM): 61.7 µM
Km ([2]; isopsoralen 5 μM): 71.1 µM
Km ([2]; isopsoralen 10 μM): 134 µM
Km ([2]; isopsoralen 20 μM): 432 µM
Km ([2]; isopsoralen 40 μM): 930 µM
Km ([3]; RLMs, bergapten 0 μM): 65.5 µM
Km ([3]; RLMs, bergapten 0.5 μM): 72.3 µM
Km ([3]; RLMs, bergapten 1 μM): 88.6 µM
Km ([3]; RLMs, bergapten 2 μM): 160 µM
Km ([3]; RLMs, bergapten 4 μM): 411 µM
Km ([3]; RLMs, isopsoralen 0 μM): 77.7 µM
Km ([3]; RLMs, isopsoralen 5 μM): 114 µM
Km ([3]; RLMs, isopsoralen 10 μM): 259 µM
Km ([3]; RLMs, isopsoralen 20 μM): 538 µM
Km ([3]; RLMs, isopsoralen 40 μM): 410 µM
Km [5]: 76.2 ± 4.51 µM
CLz/F (in vivo): 8.62 ± 2.36 L/h/kg
t1/2z (in vivo): 1.73 ± 0.44 h
MRT last (in vivo; MRT(0-t)): 2.1 ± 0.27 h
MRT inf (in vivo; MRT(0-∞)): 2.19 ± 0.28 h
SMILES: C[C@@H]1CCN(C(=O)CC#N)C[C@@H]1N(C)c1ncnc2[nH]ccc12 [tofacitinib, Tofacitinib]
Vmax [4]: 2.802 ± 0.0842 M8 area ratio
Vmax ([2]; bergapten 0 μM): 2.973 M8 area ratio
Vmax ([2]; bergapten 0.5 μM): 2.960 M8 area ratio
Vmax ([2]; bergapten 1 μM): 3.018 M8 area ratio
Vmax ([2]; bergapten 2 μM): 4.088 M8 area ratio
Vmax ([2]; bergapten 4 μM): ∼43.85 M8 area ratio
Vmax ([2]; isopsoralen 0 μM): 1.886 M8 area ratio
Vmax ([2]; isopsoralen 5 μM): 1.938 M8 area ratio
Vmax ([2]; isopsoralen 10 μM): 1.718 M8 area ratio
Vmax ([2]; isopsoralen 20 μM): 2.148 M8 area ratio
Vmax ([2]; isopsoralen 40 μM): 2.589 M8 area ratio
Vmax ([3]; RLMs, bergapten 0 μM): 8.021 M8 area ratio
Vmax ([3]; RLMs, bergapten 0.5 μM): 8.054 M8 area ratio
Vmax ([3]; RLMs, bergapten 1 μM): 8.111 M8 area ratio
Vmax ([3]; RLMs, bergapten 2 μM): 8.689 M8 area ratio
Vmax ([3]; RLMs, bergapten 4 μM): 9.555 M8 area ratio
Vmax ([3]; RLMs, isopsoralen 0 μM): 5.190 M8 area ratio
Vmax ([3]; RLMs, isopsoralen 5 μM): 5.555 M8 area ratio
Vmax ([3]; RLMs, isopsoralen 10 μM): 5.529 M8 area ratio
Vmax ([3]; RLMs, isopsoralen 20 μM): 4.503 M8 area ratio
Vmax ([3]; RLMs, isopsoralen 40 μM): 2.664 M8 area ratio
Vmax [5]: 7.259 ± 0.1879 M8 area ratio

Source: article PMC11033359 (Frontiers in Pharmacology, 2024)
